Data published in ChEMBL document CHEMBL4321794, “Discovery and Optimization of 2-Arylquinazolin-4-ones into a Potent and Selective Tankyrase Inhibitor Modulating Wnt Pathway Activity” (J Med Chem, 2019).

Experiments:
[1] = molecular target: T1, Protein mono-ADP-ribosyltransferase PARP10 (Homo sapiens, UniProt Q53GL7); assay: Inhibition of human N-terminal FLAG-tagged/C-terminal Strep-tagged PARP10 (805 to 1025 residues) expressed in baculovirus infected Sf9 insect cells using biotinylated substrate by chemiluminescence method
T1 sequence (Q53GL7 whole entry): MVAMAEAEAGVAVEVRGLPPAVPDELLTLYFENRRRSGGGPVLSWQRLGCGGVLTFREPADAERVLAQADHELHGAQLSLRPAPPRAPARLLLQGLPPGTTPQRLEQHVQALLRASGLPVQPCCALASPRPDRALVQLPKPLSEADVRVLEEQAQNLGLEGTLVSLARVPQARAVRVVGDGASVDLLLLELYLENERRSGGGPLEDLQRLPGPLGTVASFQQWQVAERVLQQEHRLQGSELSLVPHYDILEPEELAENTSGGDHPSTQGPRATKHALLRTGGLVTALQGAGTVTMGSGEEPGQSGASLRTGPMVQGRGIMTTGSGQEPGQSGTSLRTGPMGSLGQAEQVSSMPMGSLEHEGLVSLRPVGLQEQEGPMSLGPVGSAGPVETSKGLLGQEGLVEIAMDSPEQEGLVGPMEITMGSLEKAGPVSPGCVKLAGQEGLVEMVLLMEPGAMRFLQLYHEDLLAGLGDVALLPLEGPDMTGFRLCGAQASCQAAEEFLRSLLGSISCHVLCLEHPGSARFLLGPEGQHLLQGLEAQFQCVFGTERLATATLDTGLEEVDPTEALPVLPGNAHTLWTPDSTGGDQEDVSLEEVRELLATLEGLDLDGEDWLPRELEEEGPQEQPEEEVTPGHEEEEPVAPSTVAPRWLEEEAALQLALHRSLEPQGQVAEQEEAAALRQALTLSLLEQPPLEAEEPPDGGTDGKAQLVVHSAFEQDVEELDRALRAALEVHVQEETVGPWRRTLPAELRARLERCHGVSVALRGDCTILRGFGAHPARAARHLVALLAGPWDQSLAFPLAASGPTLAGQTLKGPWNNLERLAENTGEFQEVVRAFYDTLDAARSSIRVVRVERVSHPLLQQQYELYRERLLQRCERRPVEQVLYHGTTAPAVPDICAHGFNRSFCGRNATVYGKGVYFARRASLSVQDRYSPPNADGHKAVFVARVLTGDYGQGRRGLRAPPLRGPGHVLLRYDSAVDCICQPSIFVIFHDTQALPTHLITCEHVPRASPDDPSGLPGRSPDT

[2] = molecular target: T2, Protein mono-ADP-ribosyltransferase PARP3 (Homo sapiens, UniProt Q9Y6F1); assay: Inhibition of N-terminal GST-tagged recombinant full length human PARP3 expressed in Baculovirus infected Sf9 cells using biotinylated substrate after 1 hr by chemiluminescence method
T2 sequence (Q9Y6F1 whole entry): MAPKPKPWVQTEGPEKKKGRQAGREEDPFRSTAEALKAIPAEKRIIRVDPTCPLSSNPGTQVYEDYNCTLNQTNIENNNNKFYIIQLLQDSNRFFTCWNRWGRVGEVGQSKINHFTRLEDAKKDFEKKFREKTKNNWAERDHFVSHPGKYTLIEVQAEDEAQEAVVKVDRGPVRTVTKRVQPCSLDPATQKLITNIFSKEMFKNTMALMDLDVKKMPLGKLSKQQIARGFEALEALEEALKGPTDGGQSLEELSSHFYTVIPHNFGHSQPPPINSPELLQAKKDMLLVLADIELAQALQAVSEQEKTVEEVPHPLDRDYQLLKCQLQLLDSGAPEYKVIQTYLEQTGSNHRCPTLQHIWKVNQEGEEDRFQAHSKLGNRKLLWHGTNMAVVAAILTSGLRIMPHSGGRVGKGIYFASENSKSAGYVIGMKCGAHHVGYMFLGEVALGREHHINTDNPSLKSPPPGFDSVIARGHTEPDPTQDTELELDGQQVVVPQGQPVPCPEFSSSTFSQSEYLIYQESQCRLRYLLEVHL

[3] = molecular target: Poly [ADP-ribose] polymerase 1 (Homo sapiens, UniProt P09874); assay: Inhibition of N-terminal GST-tagged recombinant full length human PARP1 expressed in Baculovirus infected Sf9 cells using biotinylated substrate after 1 hr by chemiluminescence method
Sequence of Poly [ADP-ribose] polymerase 1 (P09874 whole entry): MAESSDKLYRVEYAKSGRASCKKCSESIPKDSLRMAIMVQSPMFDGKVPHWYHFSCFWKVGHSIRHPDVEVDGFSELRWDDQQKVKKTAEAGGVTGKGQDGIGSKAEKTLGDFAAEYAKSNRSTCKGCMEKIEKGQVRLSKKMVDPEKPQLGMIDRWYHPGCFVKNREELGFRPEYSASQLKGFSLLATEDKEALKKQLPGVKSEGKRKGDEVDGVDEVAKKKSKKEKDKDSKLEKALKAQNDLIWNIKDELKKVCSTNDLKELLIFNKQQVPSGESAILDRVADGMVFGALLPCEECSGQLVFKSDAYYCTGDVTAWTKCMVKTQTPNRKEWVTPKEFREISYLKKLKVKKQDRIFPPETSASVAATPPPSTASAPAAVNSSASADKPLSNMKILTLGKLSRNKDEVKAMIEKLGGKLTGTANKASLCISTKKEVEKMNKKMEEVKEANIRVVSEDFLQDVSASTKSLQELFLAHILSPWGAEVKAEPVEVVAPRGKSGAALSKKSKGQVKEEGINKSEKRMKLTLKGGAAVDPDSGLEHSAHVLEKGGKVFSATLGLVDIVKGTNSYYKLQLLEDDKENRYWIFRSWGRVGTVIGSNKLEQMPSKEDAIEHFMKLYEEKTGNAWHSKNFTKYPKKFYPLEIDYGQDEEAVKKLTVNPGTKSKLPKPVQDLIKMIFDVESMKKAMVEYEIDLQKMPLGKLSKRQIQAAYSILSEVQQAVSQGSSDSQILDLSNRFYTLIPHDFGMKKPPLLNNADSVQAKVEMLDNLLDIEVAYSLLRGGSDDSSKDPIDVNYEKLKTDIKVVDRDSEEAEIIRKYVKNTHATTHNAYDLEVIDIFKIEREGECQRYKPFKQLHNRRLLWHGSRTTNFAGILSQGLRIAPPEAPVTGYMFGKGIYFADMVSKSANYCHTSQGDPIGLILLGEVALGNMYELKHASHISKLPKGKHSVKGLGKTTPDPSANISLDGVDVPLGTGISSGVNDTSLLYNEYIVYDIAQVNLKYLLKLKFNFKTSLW

- IC50 [1]: > 10000 nM
- IC50 [2]: 1900 nM
- IC50 [3]: 710 nM
Structure (SMILES): CC(C)(O)c1ccc(-c2nc3c(F)cc(F)cc3c(=O)[nH]2)cc1
